Experiment [1] relates to Human breast cancer cells (MCF7). Briefly: Antiproliferative activity on MCF7 cells (methylene blue method). Type of experiment: cell-based. To be noted: Homo sapiens, MCF7, 72 h, MCF7 cells, 72 hours treatment, 660 nm absorbance after methylene blue staining; read-out: Antiproliferative activity IC50. The protocol:
Human breast cancer cells (MCF7) were treated with samples of various concentrations of known HSP90 inhibitors (that is, geldanamycin, herbimycin, radicicol and PU3) and the compounds of the present invention for 72 hours to confirm the effect of the triazole derivatives of the present invention on the cell growth. The cell ratio after the drug treatment was evaluated by measuring 660 nm absorbance by a microplate reader (BioRad) after staining the cells with the methylene blue method.
Cells were distributed to wells of 96 well plates at 2000 cells per well and treated with drugs 24 hours later. Further, the medium was removed 72 hours later and the cells were fixed by adding 50 μl of methanol and standing at room temperature for 2 minutes. After removing methanol, 100 μl of a staining solution was added and stained for 30 minutes. After washing 3 times with 200 μl of distilled water, 3% HCl solution was added, and the 660 nm absorbance of methylene blue was measured by a microplate reader (BioRad).
Next, the antiproliferative activity rate (%) was obtained by the formula (2) below.
Antiproliferative activity rate(%)=((B−A)/B)×100 Formula (2)
wherein B is 660 nm absorbance of the sample when the compound of the present invention is not added, and A is 660 nm absorbance of the sample when the compound of the present invention is added.
From the concentration of the triazole derivative of the present invention and the antiproliferative activity rate, the concentration was obtained using the above formula, at which the cell growth was suppressed by 50% by comparing with the control, and termed an IC50 value.
The antiproliferative activity rate (%) was obtained for SH-b04, SH-b05 and SH-b06 described above by a similar manner to that of the triazole derivatives of the present invention.

Experiment [2] concerns the target rHSP90. In words: HSP90 binding assay (BIACORE SPR; inhibition of binding between rHSP90 and fixed herbimycin A). The settings on record: concentration inhibiting binding between rHSP90 (50 μg/mL) and fixed herbimycin A by 50%, BIACORE-X SPR; read-out: HSP90 inhibitory activity IC50. The source says:
The HSP90 binding assay system is a system for detecting the change of mass as SPR signal caused by the binding between herbimycin A fixed on a sensor chip and rHSP90 by BIACORE-X, in which 17-(6-amino hexylamino)herbimycin A is fixed through a carboxyl group on the surface of the sensor chip (CM5, BIACORE) on which carboxymethyldextran has been introduced. The method was according to the protocol of BIACORE. In addition, 17-(6-aminohexylamino)herbimycin A was synthesizes as described below.
rHSP90 (Stressgen Biotechnologies Corp., Victoria, BC Canada) at 50 μg/mL was exposed for 10 seconds to the surface of the sensor chip on which herbimycin A was fixed and the SPR signal (numerical value of interaction) was detected.
After mixing rHSP90 protein (5×10^−7M (50 μg/mL)) with the triazole derivative of the present invention, the mixture was exposed for 10 seconds to the surface of the sensor chip on which herbimycin A was fixed, and the SPR signal was measured by BIACORE-X.
Next, using following formula (1), the inhibitory activity (binding inhibition rate (%)) of the compound of the present invention to the binding between rHSP90 and fixed herbimycin A was obtained.
binding inhibition rate(%)=((b−s)/b)×100 Formula (1)
wherein b is the SPR signal when the compound of the present invention is not added to the sample: s is the SPR signal when the compound of the present invention is added to the sample.

Counter-ions that a name gives are not always drawn. Bounds are passed on as bounds.

Turning to `CC(C)c1cc(-c2nnc(S(=O)(=O)CCCN3CCCCC3)n2C(C)C)c(O)cc1O` [SFN3-a21•TFA, 4-isopropyl-6-[4-isopropyl-5-(3-piperidine-1-yl-propane-1-sulfonyl)-4H-[1,2,4]triazol-3-yl]-benzene-1,3-diol], the IC50 (usually the concentration at which inhibition is half-maximal) in experiment [1] is 4.1 µM; in experiment [2] it was 1.4 µM.

Regarding `COCCn1c(-c2cc(C(C)C)c(O)cc2O)n[nH]c1=O` [OH-a32, 5-(2,4-dihydroxy-5-isopropyl-phenyl)-4-(2-methoxy-ethyl)-2,4-dihydro-[1,2,4]triazol-3-one], the IC50 is 0.39 µM in experiment [1] and 0.35 µM in experiment [2].

On to `CC(C)c1cc(-c2n[nH]c(=O)n2-c2cnc(N3CCOCC3)nc2)c(O)cc1O` [OH-a17, 5-(2,4-dihydroxy-5-isopropyl-phenyl)-4-[2-(molpholin-4-yl)-pyrimidin-5-yl]-2,4-dihydro-[1,2,4]triazol-3-one], for which the IC50 in experiment [1] is 0.026 µM; in experiment [2] it was 0.22 µM.

As to `CC(C)c1cc(-c2nnc([S+](C)[O-])n2-c2ccc(C[N+]3([O-])CCOCC3)cc2)c(O)cc1O` (stereo not drawn) [SFX-a07-TF, 4-isopropyl-6-{5-methylsulfinyl-4-[4-(morpholin-4-oxid-4-ylmethyl)-phenyl]-4H-[1,2,4]triazol-3-yl}-benzene-1,3-diol trifluoroacetate], the IC50 in experiment [1] was 12 µM; in experiment [2], 0.064 µM.

On to `CC(C)c1cc(-c2nnc(S(C)(=O)=O)n2C(CO)CO)c(O)cc1O` [SFN-a33, 4-[4-(2-hydroxy-1-hydroxymethyl-ethyl)-5-methanesulfonyl-4H-[1,2,4]triazol-3-yl]-6-isopropyl-benzene-1,3-diol], for which the IC50 is 15 µM in experiment [1] and 1.3 µM in experiment [2].

As for `CC(C)c1cc(-c2n[nH]c(=S)n2CCc2cccnc2)c(O)cc1O` [SH-a28, 5-(2,4-dihydroxy-5-isopropylphenyl)-4-(2-pyridin-3-ylethyl)-2,4-dihydro-[1,2,4]triazol-4-thione], the IC50 stood at 7.2 µM in experiment [1] and 0.43 µM in experiment [2].

Regarding `CC(C)c1cc(-c2n[nH]c(=S)n2CC2CCCO2)c(O)cc1O` (stereo not drawn) [SH-a31, 5-(2,4-dihydroxy-5-isopropylphenyl)-4-(tetrahydrofuran-2-ylmethyl)-2,4-dihydro-[1,2,4]triazol-3-thione], the IC50 was determined as 0.55 µM in experiment [1] and 0.31 µM in experiment [2].

As for `CC(C)c1cc(-c2nnc(S(C)(=O)=O)n2-c2ccc(C[N+]3([O-])CCOCC3)cc2)c(O)cc1O` [SFN-a07, 4-isopropyl-6-{5-methanesulfonyl-4-[4-(morpholin-4-oxid-4-ylmethyl)-phenyl]-4H-[1,2,4]triazol-3-yl}benzene-1,3-diol], the IC50 in experiment [1] worked out at 24 µM; in experiment [2], 0.32 µM.

In the case of `Oc1ccc(-c2nnc(S)n2-c2ccccc2)c(O)c1` [SH-b04, reference compound], the IC50 turned out to be 5.7 µM in experiment [1] and 0.17 µM in experiment [2].

For `CC#CCc1cc(-c2n[nH]c(=O)n2-c2ccc(CN3CCOCC3)cc2)c(O)cc1O` [OH-c02, 5-[5-(but-2-ynyl)-2,4-dihydroxy-phenyl]-4-[4-(morpholin-4-ylmethyl)-phenyl]-2,4-dihydro-[1,2,4]triazol-3-one], the figures for the IC50 in experiment [1] and in experiment [2] were 0.14 µM and 0.22 µM, respectively.

Regarding `COc1ccc(-n2c(-c3cc(C(C)(C)C)c(O)cc3O)n[nH]c2=S)cc1` [SH-f08], the IC50 in experiment [1] came to 3 µM; in experiment [2], 0.56 µM.

Turning to `COc1ccc(-n2c(-c3cc(C(C)C)c(O)cc3O)nnc2S(=O)(=O)CC2CCCCO2)cc1` (stereo not drawn) [SFN7-a08, 4-isopropyl-6-[4-(4-methoxy-phenyl)-5-(tetrahydro-pyran-2-ylmethanesulfonyl)-4H-[1,2,4]triazol-3-yl]-benzene-1,3-diol], the IC50 in experiment [1] and in experiment [2] was 0.72 µM throughout.

As to `CC(C)c1cc(-c2nnc(S(C)(=O)=O)n2C(C)C)c(O)cc1O` [SFN-a21, 4-isopropyl-6-(4-isopropyl-5-methanesulfonyl-4H-[1,2,4]triazol-3-yl)-benzene-1,3-diol], the IC50 was 16 µM in experiment [1] and 0.23 µM in experiment [2].

Consider `COCCn1c(-c2cc(C(C)C)c(O)cc2O)nnc1S(C)(=O)=O` [SFN-a32, 4-isopropyl-6-[5-methanesulfonyl-4-(2-methoxy-ethyl)-4H-[1,2,4]triazol-3-yl]-benzene-1,3-diol], for which the IC50 in experiment [1] is more than 20 µM; in experiment [2], 1.9 µM.

In the case of `CC(C)c1cc(-c2n[nH]c(=O)n2CCCN2CCOCC2)c(O)cc1O` [OH-a27, 5-(2,4-dihydroxy-5-isopropyl-phenyl)-4-[3-(molpholin-4-yl)-propyl]-2,4-dihydro-[1,2,4]triazol-3-one], the IC50 in experiment [1] is 0.22 µM; in experiment [2], 0.24 µM.

With `CC(C)c1cc(-c2n[nH]c(=O)n2CCCN2CCCC2=O)c(O)cc1O` [OH-a30, 5-(2,4-dihydroxy-5-isopropyl-phenyl)-4-[3-(2-oxo-pyrrolidin-1-yl)propyl]-2,4-dihydro-[1,2,4]triazol-3-one], the IC50 in experiment [1] is 1.1 µM; in experiment [2] it was 0.14 µM.

Turning to `COc1ccc(-n2c(-c3cc(C(C)C)c(O)cc3O)nnc2S(=O)(=O)CC(=O)N(C)C)cc1` [SFN6-a08, 2-[5-(2,4-dihydroxy-5-isopropyl-phenyl)-4-(4-methoxy-phenyl)-4H-[1,2,4]triazol-3-sulfonyl]-N,N-dimethyl-acetamide], the IC50 turned out to be 0.55 µM in experiment [1] and 0.58 µM in experiment [2].

With `CC(C)c1cc(-c2n[nH]c(=S)n2C(C)C)c(O)cc1O` [SH-a21, 5-(2,4-dihydroxy-5-isopropyl-phenyl)-4-isopropyl-2,4-dihydro-[1,2,4]-triazol-3-thione], the IC50 was found to be 0.4 µM in experiment [1] and 0.22 µM in experiment [2].

`CC(C)c1cc(-c2n[nH]c(=S)n2-c2ccc(Br)cc2)c(O)cc1O` [SH-a03, 4-[4-(4-bromo-phenyl)-5-mercapto-4H-[1,2,4]triazol-3-yl]-6-isopropyl-benzene-1,3-diol]: the IC50 in experiment [1] and in experiment [2] was 0.15 µM each time.

As for `COc1ccc(-n2c(-c3cc(C(C)C)c(O)cc3O)n[nH]c2=S)cc1` [SH-a08, 5-(2,4-dihydroxy-5-isopropyl-phenyl)-4-(4-methoxy-phenyl)-2,4-dihydro-[1,2,4]-triazol-3-thione], the IC50 in experiment [1] is 0.057 µM; in experiment [2] it was 0.085 µM.

Turning to `CC(C)c1cc(-c2n[nH]c(=O)n2CCN2CCOCC2)c(O)cc1O` [OH-a26•HCl, 5-(2,4-dihydroxy-5-isopropyl-phenyl)-4-(2-morpholin-4-yl-ethyl)-2,4-dihydro-[1,2,4]triazol-3-one], the IC50 in experiment [1] was found to be 0.6 µM; in experiment [2], 0.18 µM.

As for `CC(C)c1cc(-c2nnc(S(C)(=O)=O)n2CCCN2CCCC2=O)c(O)cc1O` [SFN-a30], the IC50 is more than 20 µM in experiment [1] and 2.4 µM in experiment [2].

As to `CC#CCc1cc(-c2n[nH]c(=S)n2-c2ccc(CN3CCOCC3)cc2)c(O)cc1O` [SH-c02-TF, 4-(but-2-ynyl)-6-{5-mercapto-4-[4-morpholin-4-ylmethyl]-phenyl}-4H-[1,2,4]trioazol-3-yl]-benzene-1,3-diol trifluoroacetate], the figures for the IC50 in experiment [1] and in experiment [2] were 0.48 µM and 0.25 µM, respectively.

On to `CC(C)c1cc(-c2n[nH]c(=S)n2C2CCCCC2)c(O)cc1O` [SH-a23, 5-(2,4-dihydroxy-5-isopropyl-phenyl)-4-cyclohexyl-2,4-dihydro-[1,2,4]triazol-3-thione], for which the IC50 in experiment [1] was 0.33 µM; in experiment [2] it was 0.42 µM.

The values are drawn from patent US20130116251A1, “Novel HSP90 Inhibitor” (Nippon Kayaku Kabushiki Kaisha, priority 2005, published 2013).
